Assay results taken from patent US11406575B2, “Water-free/anhydrous cream shampoo” (Henkel IP & Holding GmbH, priority 2020, dated 2022).

Test: Viscosity, Brookfield RVT Viscometer, Spindle F (Example 6)
Format: physicochemical
Details: compared with SCI
Protocol: Compositions of the inventive shampoos can have a viscosity ranging from 120,000 cps to 3,000,000 cps. Viscosity can be measured using suitable viscometer known to those of skill in the art. The preferred viscosity range is 1,000,000 cps-2,000,000 cps using a Brookfield RVT Viscometer, Spindle F at 0.5 rpm for 90 sec, with around 1,500,000 cps being the most preferred.
The viscosity of various combinations of propanediol, SCI and SLMI was measured using a Brookfield RVT Viscometer, Spindle F.

SMILES: CCCCCCCCCCCC(=O)OC(C)CS(=O)(=O)[O-].[Na+] (stereo not shown) [SLMI, sodium lauroyl methyl isethionate]
- Effect of an increase in the percentage of SLMI on viscosity of the shampoo compositions: significantly increases the viscosity
